In patent publication US12564609B2, “Hematopoietic stem cell engraftment with a combination of agents” (The Board of Trustees of the Leland Stanford Junior …, priority 2020, dated 2026):

Tests used:
[1] = tested on: hematopoietic stem and progenitor cells; assay: In vivo depletion of blood, spleen and bone marrow cells by AZA; set-up: species or system C57BL/6 mice; settings: AZA 5 mg/kg/d for 5 days
Experimental: A. Schematic of treatment protocol. C57BL/6 mice were injected with 5-Azacytidine (AZA) in dose 5 mg/kg/d for 5 consecutive days. Peripheral blood, bone marrow (BM) and spleen were analyzed on days 6, 10 and 15 and 20 after start AZA treatment. B. Peripheral blood cell counts in untreated mice as compared to AZA-treated mice at day 6, 10 and 20 following AZA treatment. Hemoglobin (Hb); white blood cells (WBC). C. Total live cells in bone marrow (BM) and spleen of untreated mice and AZA-treated mice at day 6, 10, 15 and 20 after start AZA treatment. D. Hematoxylin and eosin staining of bone marrow section from mouse femur at day 6 after treatment with AZA 5 mg/kg/d for 5 days as compared to untreated control. Magnification 100 μm. E. Representative flow cytometric analysis of the hematopoietic stem and progenitor cell (HSPC) compartment in the BM of untreated and AZA-treated mice at day 6, 10, 15 and 20. […] Lin^−Sca1^+ c-Kit^+ cells (LSK), multipotent progenitors (MPP), long-term hematopoietic stem cells (LT-HSC), short-term HSC (ST-HSC). F. Absolute number of the different HSPC compartments at day 6, 10, 15 and 20 after start of AZA treatment as compared to untreated control mice. Lin^−Sca1^+c-Kit^+ (LSK); LSKCD150^+CD48^− (LT-HSC), LSKCD150^−CD48^− (ST-HSC), LSKCD150^+CD48^+ (MPP2), LSKCD150^−CD48^+Flt3^− (MPP3), LSKCD150^−CD48^+Flt3^+ (MPP4). Data in (B), (C) and (F) represent mean±SD (n=4 per group per timepoint). Statistics were calculated with Mann-Whitney test (*P<0.05).
(§1) Mice. C57BL/6 (B6) mice (H-2^b, Thy1.1, CD45.1/CD45.2) were recipients and B6 mice (H-2^b, Thy1.1, CD45.1) were donors for the congenic transplant experiments. BALB.B (H-2^b, Thy1.2, CD45.2) mice were used as recipients and B6 mice (H-2^b, Thy1.1, CD45.1) as donors for […] (allogeneic) transplant experiments. Recipients were >8 weeks old and donors were 8-12 weeks old at timepoint of transplantation. B6 (H-2^b, Thy1.1, CD45.2) mice were used for in vivo depletion studies. Mice were bred and maintained under pathogen free conditions at the Stanford University Research Animal Facility. All experiments were performed under a protocol approved by the Stanford Administrative Panel on Laboratory Animal Care.
(§2) In vivo administration of therapeutic agents and cytokines. Anti-mouse CD117 mAbs, clone ACK2 (BioXcell) and 2B8 (BioXcell), were injected retroorbital as a single dose of 500 μg following intraperitoneal administration of Diphenhydramine (Benadryl). Anti CD4 (clone GK1.5, BioXcell) and anti-CD8 (clone YTS169.4, BioXcell) were administered intraperitoneally at a dose of 100 μg in 100 μl phosphate-buffered saline (PBS). […] Before each injection, AZA was thawed for 10-15 min at room temperature (RT), resuspended in PBS and administered intraperitoneally in 100 μl. Recombinant murine SCF (PeproTech), dissolved in deionized water to concentration of 10 μg/ml, was injected intraperitoneally at the amount of 1 μg/day.
Flow cytometry. Cells were stained for surface markers and incubated at RT in the dark for 20 min.
Bone marrow and spleen cell preparation for analysis. Mice were euthanized and bone marrow (hips, femurs, tibia, spine) and spleen were harvested. Bones were crushed in PBS+2% bovine calf serum (BCS) into single cell suspensions and filtered through 70-μm filter (Falcon). Spleens were mashed direct in 70-μm filter (Falcon). RBC lysis was performed with ACK lysis buffer for 10 min at RT. Cells were rinsed, filtered again and counted on a Countess automated cell counter (Invitrogen).
Complete blood cell count. 20 μl of whole blood was collected via the tail vein and complete blood counts (CBC) were conducted using Heska HemaTrue Veterinary Hematology Analyzer (Heska).

[2] = tested on: Lin−Sca1+c-Kit+ cells (LSK); assay: Annexin V/PI staining of HSPC fractions after AZA in vivo; set-up: species or system mice; settings: AZA 1.25, 2.5 and 5 mg/kg/d for 3 days
Experimental: Analysis was performed 24 h after last AZA administration. Gated from LSK. (B) Annexin V+(left) and AnnexinV/PI+(right) cells shown as % from LSK in the three different dose groups as compared to untreated controls. Data were pooled from 2 independent experiments and represent mean±SD (n=4 in the control group and n=7 in the AZA groups). Statistics were calculated Mann-Whitney test (*P<0.05; **P<0.01).
In vivo direct killing by apoptosis was confirmed by flow cytometry using Annexin V/PI to stain the HSPC fractions.

donor HSC engraftment = assay: Congenic hematopoietic cell transplantation, donor chimerism in peripheral blood; assay type: in vivo, B6 mice
Excerpt: as §1
as §2, with “Recombinant murine SCF (PeproTech), dissolved in deionized water to concentration of 10 μg/ml, was injected intraperitoneally at the amount of 1 μg/day.” left out

[3] = AZA in mouse model of HCL with transplantation of donor hematopoietic cells; assay type: in vivo, mice; settings: AZA 5 mg/kg for 5 days followed by transplantation
Experimental: Wildtype and HCL mice were treated with AZA 5 mg/kg for 5 days following by transplantation of donor hematopoietic cells. % myeloid donor chimerism was assessed by flow cytometry at 4- and 16-weeks post transplantation.

[4] = patients, subcutaneous administration of 75 mg/m^2 AZA, plasma; cited from earlier work

Compound: Nc1ncn([C@@H]2O[C@H](CO)[C@@H](O)[C@H]2O)c(=O)n1 [AZA, 5-Azacytidine]
- rebound of splenic myeloid cells to normal levels [1]: ≤ 10 days
- recovery of BM B cells [1]: > 15 days
- recovery of all blood subsets to normal range values [1]: ≤ 20 days
- recovery of overall BM cellularity [1]: ≤ 10 days
- recovery of the ST-HSC fraction in BM [1]: > 20 days
- nadir of MPP4 and common lymphoid progenitors (CLP) ([1]; BM): 10 days
- recovery of CMP and GMP ([1]; BM): > 15 days
- recovery of MEP ([1]; BM): ≤ 10 days
- recovery of MPP4 and CLP ([1]; BM): ≤ 20 days
- myeloid-biased multipotent progenitors MPP2 and MPP3 after BM depletion of HSC ([1]; by day 6): rapid expansion
- depletion of common myeloid progenitors (CMP) ([1]; by day 6, BM): > 25 fold
- depletion of granulocyte-macrophage progenitors (GMP) ([1]; by day 6, BM): > 18 fold
- depletion of megakaryocyte-erythrocyte progenitors (MEP) ([1]; by day 6, BM): > 11 fold
- reduction of LT-HSC in BM at nadir ([1]; day 6): 15 fold
- reduction of ST-HSC in BM at nadir ([1]; day 6): 24 fold
- splenic myeloid cells ([1]; day 6): significantly reduced
- overall BM cellularity decreased ([1]; day 6, p value=0.0286): 80 % from baseline
- maximal B cell (CD19) depletion in BM ([1]; day 10): > 30 fold
- B-cell development in the bone marrow (Hardy fractions) ([1]; days 6, 10, 15 and 20): maturation block at Fraction D and E
- reduction of granulocytes in blood ([1]; peripheral blood): ~4 fold
- day of lowest blood values (Hb, WBC, granulocytes, lymphocytes, monocytes) ([1]; days after initiation of AZA): 10 days
- apoptosis and apoptotic cell death in the HSPC compartment [2]: dose dependent
- stable engraftment of donor WBM (donor HSC engraftment; AZA 2.5 mg/kg for 5 days, 20×10^6 congenic WBM cells): does not enable stable engraftment
- myeloid donor chimerism (donor HSC engraftment; single agent AZA 5 mg/kg for 5 days, congenic WBM cells): 10-15%
- therapeutic activity [3]: shows therapeutic activity
- Cmax [4]: 750 ± 403.3 ng/mL
